From patent US20090130098A1, “Specific therapy using integrin ligands for treating cancer” (Merck Patent GmbH, priority 2006, published 2009)

Columns and labels:
[1] = tested on: recurrent glioblastoma (GBM); assay: Phase IIa trial of cilengitide single agent therapy in recurrent glioblastoma; format: in vivo, human
Experimental: Background: The present phase IIa study was designed to evaluate the safety, toxicity, and clinical activity of the cyclic RGD pentapeptide cilengitide ((=cyclo-(Arg-Gly-Asp-DPhe-NMe-Val)), an inhibitor of integrins αvβ3 and αvβ5, as a single agent at doses of 500 and 2000 mg in patients (pts) with recurrent glioblastoma (GBM).
Methods: In this multicenter, open-label, randomized, uncontrolled study, pts with GBM and measurable disease that had relapsed after previous therapy with temozolomide and radiotherapy were randomized to receive cilengitide at doses of either 500 mg or 2000 mg i.v., 2×/week, until progression. Histopathology diagnosis and MRI imaging were subject to independent blinded review. The primary endpoint was Progression Free Survival (PFS) at 6 months (mths). Secondary endpoints included response, survival, time to disease progression, safety, tolerability and pharmacokinetics.

[2] = tested on: newly diagnosed glioblastoma (GBM); assay: Phase I/IIa trial of cilengitide with temozolomide and radiotherapy in newly diagnosed glioblastoma; format: in vivo, human; details: cilengitide 500 mg + TMZ/RT
Experimental: Purpose: To evaluate safety, toxicity, and efficacy of the combination of the cyclic RGD pentapeptide Cilengitide (=cyclo-(Arg-Gly-Asp-DPhe-NMe-Val)), an inhibitor of integrins αvβ3 and αvβ5, in addition to standard temozolomide (TMZ) and radiotherapy (RT).
Patients and methods: Fifty-two pts (PS 0-1: 92%, 2: 8%; median age 57 yrs) after biopsy (n= 9/17%) or tumor resection (n= 43/83%) were treated with standard TMZ/RT (Stupp et al. NEJM 2005). In addition Cilengitide (500 mg i.v., 2×/week) was started one week before TMZ/RT and given throughout for the duration of chemotherapy or until progression. Primary endpoint was progression free survival rate at 6 months (target: 65%). Patients were followed with MRI every 2 months. Histopathologic diagnosis and MRI imaging were independently reviewed, MGMT promotor methylation status was assessed in 45 (86.5%) pts.

various brain tumors = details: human, in vivo; cited from earlier work

CC(C)[C@H]1C(=O)N[C@@H](CCCN=C(N)N)C(=O)NCC(=O)N[C@@H](CC(=O)O)C(=O)N[C@H](Cc2ccccc2)C(=O)N1C [cilengitide, cyclo-(Arg-Gly-Asp-DPhe-NMeVal)]
pts who received 12 or more cycles of therapy ([1]; 500 mg): 4 pts
pts who received 12 or more cycles of therapy ([1]; 2000 mg): 6 pts
tumor control, 2000 mg vs 500 mg ([1]; 2000 mg 2x/week, not statistically significant): trend towards better tumor control
Treatment related NCI CTC grade 3 AE: arthralgia/myalgia ([1]; at 500 mg): 1 patient
Treatment related NCI CTC grade 3 AE: elevated liver enzymes ([1]; at 500 mg): 1 patient
Treatment related NCI CTC grade 3 AE: weight increase/edema ([1]; at 2000 mg): 1 patient
single agent activity in recurrent glioblastoma ([1]; in vivo): advantageous single agent activity
non-hematologic grade 3: constitutional symptoms (asthenia, fatigue, anorexia) [2]: 3 n
non-hematologic grade 3: deep venous thrombosis and pulmonary embolism [2]: 1 n
non-hematologic grade 3: elevated liver function tests [2]: 1 n
sigmoid perforation (grade 2) ([2]; patient with history of sigmoid diverticulosis): One patient
MTD (various brain tumors): no known MTD
